Experimental data published in US8071568B2, “Nucleoside aryl phosphoramidates for the treatment of RNA-dependent RNA viral infection” (Merck Sharp & Dohme Corp., priority 2007, dated 2011).
pEC50: −log10 of the molar value. Where two headings read alike, the source gives them in different places.

System: Hepatitis C Virus RNA in cultured hepatoma (HuH-7) cells containing a subgenomic HCV Replicon
Assay: Assay for inhibition of HCV RNA replication (replicon assay, in situ ribonuclease protection SPA)
Assay type: cell-based
[1] = Hepatitis C virus, Huh-7, read-out: Replicon Assay EC50
[2] = Hepatitis C virus, Huh-7, read-out: Replicon Assay EC50, first eluting diastereomer, HuH-7 subgenomic HCV replicon
[3] = Hepatitis C virus, Huh-7, read-out: Replicon Assay EC50, second eluting diastereomer, HuH-7 subgenomic HCV replicon
[4] = mixture of diastereomers tested, HuH-7 subgenomic HCV replicon, read-out: Replicon Assay EC50

CCCC(=O)OC[C@H](C)NP(=O)(OC[C@H]1O[C@@H](n2ccc(N)nc2=O)[C@](C)(O)[C@@H]1O)Oc1ccccc1 (mixture of isomers) [Example 2, 5′-O-[{[(±)-2-(Butyryloxy)-1-methylethyl]-amino}-(phenoxy)-phosphoryl]-2′-C-methylcytidine]
pEC50 [1]: 5.55 | pEC50 (read-out: Replicon Assay EC50): 5.40

C[C@@H](COC(=O)C(C)(C)C)NP(=O)(OC[C@H]1O[C@@H](n2ccc(N)nc2=O)[C@](C)(O)[C@@H]1O)Oc1ccccc1 (single isomer, unassigned) [Example 1]
pEC50 [1]: 5.80 | pEC50 (read-out: Replicon Assay EC50): 6.05

CC[C@H](C)[C@@H](COC(=O)C(C)(C)C)NP(=O)(OC[C@H]1O[C@@H](n2ccc(N)nc2=O)[C@](C)(O)[C@@H]1O)Oc1ccccc1 (single isomer, unassigned) [Example 6]
pEC50 [1]: 5.70 | pEC50 (read-out: Replicon Assay EC50): 5.74

CC(C)C(=O)OC[C@H](Cc1ccccc1)NP(=O)(OC[C@H]1O[C@@H](n2ccc(N)nc2=O)[C@](C)(O)[C@@H]1O)Oc1ccccc1 (single isomer, unassigned) [Example 11]
pEC50 [1]: 6.30 | pEC50 (read-out: Replicon Assay EC50): 6.05

CC(C)C(=O)O[C@@H](C)CNP(=O)(OC[C@H]1O[C@@H](n2ccc(N)nc2=O)[C@](C)(O)[C@@H]1O)Oc1ccccc1 (single isomer, unassigned) [Example 12]
pEC50 [1]: 5.66 | pEC50 (read-out: Replicon Assay EC50): 5.62

C[C@@]1(O)[C@H](O)[C@@H](COP(=O)(NCCOC(=O)c2ccccc2)Oc2ccccc2)O[C@H]1n1ccc(N)nc1=O (single isomer, unassigned) [Example 16, cytidine, 5′-O-[[[2-(benzoyloxy)ethyl]amino]phenoxyphosphinyl]-2′-C-methyl-]
pEC50 [2]: 5.66 | pEC50 [3]: 5.30

CCC(CC)C(=O)OCCNP(=O)(OC[C@H]1O[C@@H](n2ccc(N)nc2=O)[C@](C)(O)[C@@H]1O)Oc1ccccc1 (single isomer, unassigned) [Example 20, 5′-O-[({2-[(2-ethylbutanoyl)oxy]ethyl}amino)(phenoxy)phosphoryl]-2′-C-methylcytidine]
pEC50 [2]: 5.55 | pEC50 [3]: 6.22

C[C@@]1(O)[C@H](O)[C@@H](COP(=O)(NCCOC(=O)C2CCCCCC2)Oc2ccccc2)O[C@H]1n1ccc(N)nc1=O (single isomer, unassigned) [Example 21, 5′-O-[({2-[(cycloheptylcarbonyl)oxy]ethyl}amino)(phenoxy)phosphoryl]-2′-C-methylcytidine]
pEC50 [2]: 6.15 | pEC50 [3]: 5.92

CC(C)C(=O)O[C@@H]1CCN(P(=O)(OC[C@H]2O[C@@H](n3ccc(N)nc3=O)[C@](C)(O)[C@@H]2O)Oc2ccccc2)C1 (single isomer, unassigned) [Example 22]
pEC50 [2]: < 5.30 | pEC50 [3]: < 5.30

CC(C)(C)C(=O)OC[C@H](Cc1ccccc1)NP(=O)(OC[C@H]1O[C@@H](n2ccc(N)nc2=O)[C@](C)(O)[C@@H]1O)Oc1ccccc1 (stereo partly drawn) [Example 8, 5′-O-[[[(1S)-2-[(2,-dimethyl-1-oxopropoxy)-1-(phenylmethyl)]-ethyl]amino]-(phenoxy)-phosphinyl]-2′-C-methylcytidine]
pEC50 [4]: 6.00

CC1(C)O[C@@H]2[C@@H](COP(=O)(N[C@H](COC(=O)C(C)(C)C)Cc3ccccc3)Oc3ccccc3)O[C@@H](n3ccc(N)nc3=O)[C@]2(C)O1 (stereo partly drawn) [Example 14, cytidine, 5′-O-[[[(1S)-2-(2,2-dimethyl-1-oxopropoxy)-1-(phenylmethyl)ethyl]amino]phenoxyphosphinyl]-2′-C-methyl-2′,3′-O-(1-methylethylidene)-]
pEC50 (first eluting diastereomer, HuH-7 subgenomic HCV replicon, read-out: Replicon Assay EC50): < 5.30 | pEC50 (second eluting diastereomer, HuH-7 subgenomic HCV replicon, read-out: Replicon Assay EC50): < 5.30

CCCCC(COC(=O)C(C)(C)C)NP(=O)(OCC1OC(n2ccc(N)nc2=O)C2(C)OC(C)(C)OC12)Oc1ccccc1 [Example 15, cytidine, 5′-O-[[[(1S)-1-[(2,2-dimethyl-1-oxopropoxy)methyl]pentyl]amino]phenoxyphosphinyl]-2′-C-methyl-2′,3′-O-(1-methylethylidene)-]
pEC50 [4]: < 5.00
